Data from patent publication US6160004A, “C-10 carbon-substituted artemisinin-like trioxane compounds having antimalarial, antiproliferative and antitumor activities” (priority 1998, dated 2000).

What was measured:
[1] = tested on: MALME-3M; experiment: cells; type: cell-based; conditions: Homo sapiens, 48 h
[2] = tested on: SK-MEL-2; experiment: cells; type: cell-based; conditions: Homo sapiens, SK-MEL-2, melanoma, 48 h
[3] = tested on: CAKI-1; experiment: NCI 60 cell line panel screening assay (SRB), CAKI-1; type: cell-based; conditions: Homo sapiens
[4] = tested on: SF-295; experiment: cells; type: cell-based; conditions: Homo sapiens, SF-295, CNS cancer, 48 h
[5] = tested on: OVCAR-4; experiment: cells; type: cell-based; conditions: Homo sapiens
[6] = tested on: A549/ATCC; experiment: NCI 60 cell line panel screening assay (SRB), A549/ATCC; type: cell-based; conditions: Homo sapiens, non-small cell lung cancer, 48 h, read-out: Log10 GI50 (converted)
[7] = tested on: T-47D; experiment: NCI 60 cell line panel screening assay (SRB), T-47D; conditions: Homo sapiens, T47D, 48 h
[8] = tested on: NCI-H460; experiment: cells; type: cell-based; conditions: Homo sapiens; NCI-H460, non-small cell lung cancer, 48 h; read-out: Log10 GI50 (converted)
[9] = tested on: PC-3; experiment: cells; type: cell-based; conditions: Homo sapiens, PC-3, prostate cancer, 48 h
[10] = tested on: chloroquine-sensitive P. falciparum (NF54); experiment: In vitro antimalarial activity ([3H]hypoxanthine incorporation); type: cell-based
[11] = tested on: SR; experiment: cells; type: cell-based; conditions: Homo sapiens, leukemia, 48 h
[12] = tested on: HL-60(TB); experiment: cells; type: cell-based; conditions: Homo sapiens
[13] = tested on: SNB-19; experiment: cells; type: cell-based; conditions: Homo sapiens, SNB-19, CNS cancer, 48 h
[14] = tested on: M14; experiment: NCI 60 cell line panel screening assay (SRB), M14; conditions: Homo sapiens, M14, 48 h
[15] = tested on: EKVX; experiment: NCI 60 cell line panel screening assay (SRB), EKVX; type: cell-based; conditions: Homo sapiens, non-small cell lung cancer, 48 h, read-out: Log10 GI50 (converted)
[16] = tested on: MDA-MB231/ATCC; experiment: cells; type: cell-based; conditions: Homo sapiens, MDA-MB-231, breast cancer, 48 h
[17] = tested on: BT-549; experiment: cells; type: cell-based; conditions: Homo sapiens, BT-549, breast cancer, 48 h
[18] = tested on: LOX IMVI; experiment: cells; type: cell-based; conditions: Homo sapiens, melanoma, 48 h
[19] = tested on: ACHN; experiment: NCI 60 cell line panel screening assay (SRB), ACHN; type: cell-based; conditions: Homo sapiens, renal cancer, 48 h
[20] = tested on: OVCAR-3; experiment: cells; type: cell-based; conditions: Homo sapiens
[21] = tested on: MDA-N; experiment: NCI 60 cell line panel screening assay (SRB), MDA-N; type: cell-based; conditions: Homo sapiens, breast cancer, 48 h, read-out: Log10 GI50 (converted)
[22] = tested on: MCF7; experiment: cells; type: cell-based; conditions: Homo sapiens; MCF7, breast cancer, 48 h; read-out: Log10 LC50 (converted)
[23] = tested on: HS 578T; experiment: cells; type: cell-based; conditions: Homo sapiens, HS 578T, breast cancer, 48 h
[24] = tested on: HCT-15; experiment: cells; type: cell-based; conditions: Homo sapiens, HCT-15, colon cancer, 48 h
[25] = tested on: MCF7/ADR-RES; experiment: cells; type: cell-based; conditions: Homo sapiens, MCF7/ADR-RES, breast cancer, 48 h
[26] = tested on: NCI-H522; experiment: cells; type: cell-based; conditions: Homo sapiens
[27] = tested on: UO-31; experiment: NCI 60 cell line panel screening assay (SRB), UO-31; type: cell-based; conditions: Homo sapiens, UO-31, renal cancer, 48 h
[28] = tested on: SF-539; experiment: cells; type: cell-based; conditions: Homo sapiens, SF-539, CNS cancer, 48 h
[29] = tested on: SK-OV-3; experiment: cells; type: cell-based; conditions: Homo sapiens
[30] = read-out: Log10 GI50 (converted)
[31] = read-out: Log10 LC50 (converted)

`CC1CCC2C(C)C(CC(=O)c3cccc(C(=O)CC4OC5OC6(C)CCC7C(C)CCC(C4C)C57OO6)c3)OC3OC4(C)CCC1C32OO4` (centres unmarked) [Dimer 39] was tested, and the IC (TGI) ([1]; Malme-3M, read-out: Log10 TGI) was > 100 µM, the GI50 ([1]; MALME-3M, melanoma, read-out: Log10 GI50 (converted)) was > 100 µM and the LC50 (50% lethal concentration) ([1]; MALME-3M, melanoma, read-out: Log10 LC50 (converted)) was > 100 µM. For the same compound, the GI50 [2, 30] was > 100 µM, the CC50 [2, 31] was > 100 µM and the IC (TGI) ([2]; read-out: Log10 TGI) was > 100 µM. The CC50 ([3]; CAKI-1, 48 h, read-out: Log10 LC50 (converted)) was > 100 µM, the GI50 ([3]; CAKI-1, renal cancer, 48 h, read-out: Log10 GI50 (converted)) was > 100 µM and the IC (TGI) ([3]; CAKI-1, renal cancer, 48 h, read-out: Log10 TGI (converted)) was > 100 µM. The GI50 [4, 30] was > 100 µM, the CC50 [4, 31] was > 100 µM and the IC (TGI) ([5]; OVCAR-4, 48 h, read-out: Log10 TGI) was > 100 µM. The GI50 ([5]; OVCAR-4, ovarian cancer, 48 h, read-out: Log10 GI50 (converted)) was > 100 µM, the CC50 ([5]; OVCAR-4, ovarian cancer, 48 h, read-out: Log10 LC50 (converted)) was > 100 µM and the GI50 [6] was > 100 µM. The GI50 [7, 30] was > 100 µM, the CC50 [7, 31] was > 100 µM and the GI50 [8] was > 100 µM. The GI50 [9, 30] was > 100 µM, the LC50 [9, 31] was > 100 µM and the “in vitro antimalarial potency relative to artemisinin” value ([10]; P. falciparum NF54) was “more potent than artemisinin”. For the same compound, the IC50 ([10]; Plasmodium falciparum, chloroquine-sensitive P. falciparum NF54, in vitro) was 0.0019 µM, the GI50 [11, 30] was > 100 µM and the CC50 [11, 31] was > 100 µM. The IC (TGI) ([11]; read-out: Log10 TGI) was > 100 µM, the CC50 ([12]; HL-60, 48 h, read-out: Log10 LC50 (converted)) was > 100 µM and the GI50 ([12]; HL-60(TB), leukemia, 48 h, read-out: Log10 GI50 (converted)) was > 100 µM. For the same compound, the IC (TGI) ([12]; HL-60(TB), leukemia, 48 h, read-out: Log10 TGI) was > 100 µM, the GI50 [13, 30] was > 100 µM and the CC50 [13, 31] was > 100 µM. The IC (TGI) ([13]; read-out: Log10 TGI) was > 100 µM, the GI50 [14, 30] was > 100 µM and the CC50 [14, 31] was > 100 µM. The IC (TGI) ([14]; read-out: Log10 TGI) was > 100 µM, the GI50 [15] was > 100 µM and the GI50 [16, 30] was > 100 µM. For the same compound, the CC50 [16, 31] was > 100 µM, the GI50 [17, 30] was > 100 µM and the CC50 [17, 31] was > 100 µM. For the same compound, the GI50 [18, 30] was > 100 µM, the CC50 [18, 31] was > 100 µM and the IC (TGI) ([18]; read-out: Log10 TGI (converted)) was > 100 µM. The GI50 [19, 30] was > 100 µM, the IC (TGI) ([19]; read-out: Log10 TGI) was > 100 µM and the IC (TGI) ([20]; OVCAR-3, 48 h, read-out: Log10 TGI) was > 100 µM. The GI50 ([20]; OVCAR-3, ovarian cancer, 48 h, read-out: Log10 GI50 (converted)) was > 100 µM, the CC50 ([20]; OVCAR-3, ovarian cancer, 48 h, read-out: Log10 LC50 (converted)) was > 100 µM and the GI50 [21] was > 100 µM. The CC50 [22] was > 100 µM, the GI50 [23, 30] was > 100 µM and the CC50 [23, 31] was > 100 µM. For the same compound, the GI50 [24, 30] was > 100 µM, the CC50 [24, 31] was > 100 µM and the GI50 [25, 30] was > 100 µM. The CC50 [25, 31] was > 100 µM, the CC50 ([26]; NCI-H522, 48 h, read-out: Log10 LC50 (converted)) was > 100 µM and the GI50 ([26]; NCI-H522, non-small cell lung cancer, 48 h, read-out: Log10 GI50 (converted)) was > 100 µM. The GI50 [27, 30] was > 100 µM, the CC50 [27, 31] was > 100 µM and the IC (TGI) ([27]; read-out: Log10 TGI) was > 100 µM. For the same compound, the GI50 [28, 30] was > 100 µM, the CC50 [28, 31] was > 100 µM and the IC (TGI) ([29]; SK-OV-3, 48 h, read-out: Log10 TGI) was > 100 µM. For the same compound, the GI50 ([29]; SK-OV-3, ovarian cancer, 48 h, read-out: Log10 GI50 (converted)) was > 100 µM and the CC50 ([29]; SK-OV-3, ovarian cancer, 48 h, read-out: Log10 LC50 (converted)) was > 100 µM.
